ChEMBL document CHEMBL1135481, “SMall Molecule Growth 2001 (SMoG2001): an improved knowledge-based scoring function for protein-ligand interactions” (J Med Chem, 2002)
One block for each compound: values may come before it. Numbered stars: 1 amine (or outer) side, 2 acyl side, 3 side chain; on linkers, the order of the positions; unused ones are H or OH. Square brackets hold non-standard residues; d marks the D form. Peptide text beside a SMILES is read from it. Phe(ψ(S)CH(OH)CH2N)Pro = O=C([C@@H]1CCCN1C[C@H](O)[C@H](Cc1ccccc1)N[*:1])[*:2]; Nle = CCCC[C@H](N)C(=O)O; Orn = NCCC[C@H](N)C(=O)O

Assays:
[1] = target: Human immunodeficiency virus type 1 protease (Human immunodeficiency virus 1) (UniProt Q72874); assay: Affinity for HIV Protease
[2] = Binding affinity against Penicillopepsin
[3] = Binding affinity against TP isomerase
[4] = tested on: Purine nucleoside phosphorylase; assay: Binding affinity against Purine Nucleoside Phosphorylase
[5] = Binding affinity against Endothiapepsin
[6] = Binding affinity against Arabinose binding protein of the compound
[7] = target: T1, Thermolysin (Bacillus thermoproteolyticus) (UniProt P00800); assay: Binding affinity against Thermolysin
T1 sequence (whole entry): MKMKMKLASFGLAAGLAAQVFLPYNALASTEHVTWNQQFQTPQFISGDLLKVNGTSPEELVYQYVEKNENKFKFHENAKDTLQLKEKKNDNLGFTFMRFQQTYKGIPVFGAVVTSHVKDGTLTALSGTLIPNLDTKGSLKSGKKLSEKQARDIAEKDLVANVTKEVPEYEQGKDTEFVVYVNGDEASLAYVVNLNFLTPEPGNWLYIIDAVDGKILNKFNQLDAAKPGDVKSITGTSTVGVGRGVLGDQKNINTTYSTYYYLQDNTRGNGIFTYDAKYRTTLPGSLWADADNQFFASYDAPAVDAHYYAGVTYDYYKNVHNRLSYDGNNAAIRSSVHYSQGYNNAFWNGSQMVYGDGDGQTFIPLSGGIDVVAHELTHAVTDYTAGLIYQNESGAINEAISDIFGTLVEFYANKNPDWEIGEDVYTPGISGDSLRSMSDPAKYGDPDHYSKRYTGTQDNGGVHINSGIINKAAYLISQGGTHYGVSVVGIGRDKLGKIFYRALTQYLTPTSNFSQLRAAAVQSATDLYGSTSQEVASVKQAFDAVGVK

[8] = Binding affinity against FK506 binding protein
[9] = Binding affinity against Retinol-binding protein
[10] = target: T2, Fatty acid-binding protein, intestinal (Homo sapiens) (UniProt P12104); assay: Binding affinity against Fatty acid-binding protein
T2 sequence (whole entry): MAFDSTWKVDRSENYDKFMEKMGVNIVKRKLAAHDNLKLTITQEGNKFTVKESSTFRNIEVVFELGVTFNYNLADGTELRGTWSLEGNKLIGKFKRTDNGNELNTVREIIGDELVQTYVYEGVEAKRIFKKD

[11] = Binding affinity against Histidine-binding protein
[12] = Binding affinity against Glucose binding protein
[13] = Binding affinity against immunoglobulin

Log Kd [2]: -7.71
SMILES: CCOC(=O)CC(O)C(CC(C)C)NC(=O)[C@@H](NC(=O)[C@@H](NC(=O)CC(C)C)C(C)C)C(C)C (some centres undefined)

Log Kd [6]: -6.65
SMILES: OC[C@H]1O[C@@H](O)[C@H](O)[C@@H](O)[C@H]1O

Log Kd [7]: -3.72
SMILES: CC(C)C[C@H](N)C(=O)NO

Log Kd [5]: -6.8
SMILES: CC[C@H](C)[C@H](NC(=O)[C@@H](NC[C@H](CC(C)C)NC(=O)[C@H](Cc1c[nH]cn1)NC(=O)[C@H](Cc1ccccc1)NC(=O)[C@@H]1CCCN1C(=O)[C@H](Cc1c[nH]cn1)NC(=O)[C@@H]1CCCN1)C(C)C)C(=O)N[C@@H](Cc1c[nH]cn1)C(=O)N[C@@H](CCCCN)C(=O)O

Log Kd [10]: -5.43
SMILES: CCCCCCCCCCCCCCCC(=O)O

Log Kd [11]: -7.31
SMILES: N[C@@H](Cc1c[nH]cn1)C(=O)O

Log Kd [12]: -7.6
SMILES: OC[C@H]1OC(O)[C@H](O)[C@@H](O)[C@@H]1O (some centres undefined)

Log Kd [1]: -10.1
SMILES: CC(C)[C@H](NC(=O)N(C)Cc1ccccn1)C(=O)N[C@@H](Cc1ccccc1)C(O)C(O)[C@H](Cc1ccccc1)NC(=O)[C@@H](NC(=O)N(C)Cc1ccccn1)C(C)C (single isomer, unassigned)

Log Kd [13]: -7.28
SMILES: N#Cc1ccc(NC(=N)NC(c2ccccc2)c2ccccc2)cc1

More lines, now with the values behind:

SMILES: CC(C)[C@H](NC(=O)N(C)Cc1ccccn1)C(=O)N[C@@H](Cc1ccccc1)[C@H](O)[C@H](O)[C@H](Cc1ccccc1)NC(=O)[C@@H](NC(=O)N(C)Cc1ccccn1)C(C)C
Log Kd [1]: -10.1

SMILES: O=C(O)COP(=O)(O)O
Log Kd [3]: -4.82

SMILES: O=P(O)(O)OP(=O)(O)OP(=O)(O)OP(=O)(O)OC[C@H]1O[C@@H](n2cnc3cncnc32)[C@H](O)[C@@H]1O
Log Kd [4]: -5.85

SMILES: CC(C)C[C@H](NC(=O)C[C@H](O)[C@H](CC1CCCCC1)NC(=O)CC[C@H](O)[C@H](Cc1ccccc1)NC(=O)OC(C)(C)C)C(=O)NCc1cccc(CN)c1
Log Kd [5]: -4.8

SMILES: CC=O
Log Kd [1]: -8.41

SMILES: C[C@@H](O)[C@H](NC(=O)[C@@H]1CCCN1)C(=O)N[C@@H](CCC(=O)O)C(=O)N[C@H](CN[C@@H](Cc1ccccc1)C(=O)N[C@@H](CCCN=C(N)N)C(=O)N[C@@H](CCC(=O)O)C(=O)O)Cc1ccccc1
Log Kd [5]: -7.22

SMILES: C=CC[C@@H]1/C=C(\C)C[C@H](C)C[C@H](OC)[C@H]2O[C@@](O)(C(=O)C(=O)N3CCCC[C@H]3C(=O)O[C@H](/C(C)=C/[C@@H]3CC[C@@H](O)[C@H](OC)C3)[C@H](C)[C@@H](O)CC1=O)[C@H](C)C[C@@H]2OC
Log Kd [8]: -9.7

SMILES: CC1=C(/C=C/C(C)=C/C=C/C(C)=C/CO)C(C)(C)CCC1
Log Kd [9]: -6.72

SMILES: CCCC[C@H](NC(=O)[C@H](CCCC)NC(=O)[C@@H](NC(=O)[C@@H](NC(C)=O)[C@@H](C)O)[C@@H](C)CC)C(=O)N[C@@H](CCCN)C(=O)N[C@@H](CCCN=C(N)N)C(N)=O (Ac-TI[Nle][Nle][Orn]R-NH2)
Log Kd [1]: -6.11

SMILES: O=C(N[C@H]1c2ccccc2C[C@H]1O)[C@H](Cc1ccccc1)CC(O)C[C@@H](Cc1ccccc1)C(=O)N[C@H]1c2ccccc2C[C@H]1O
Log Kd [1]: -9.15

SMILES: CC[C@H](C)[C@H](NC(=O)[C@@H]1CCCN1C[C@H](O)[C@H](Cc1ccccc1)NC(=O)[C@H](CC(N)=O)NC(=O)[C@H](CC(C)C)NC(=O)[C@H](CO)NC(C)=O)C(=O)N[C@H](C(=O)OC)C(C)C (Ac-SLN[Phe(ψ(S)CH(OH)CH2N)Pro]IV-OMe)
Log Kd [1]: -9.63

SMILES: O=P(O)(O)OP(=O)(O)OC[C@H]1O[C@@H](n2cnc3cncnc32)[C@H](O)[C@@H]1O
Log Kd [4]: -6.22

SMILES: O=P(O)(O)OP(=O)(O)OP(=O)(O)OP(=O)(O)OP(=O)(O)OC[C@H]1O[C@@H](n2cnc3cncnc32)[C@H](O)[C@@H]1O
Log Kd [4]: -5.96

SMILES: CC(C)[C@H](NC(=O)N(C)Cc1ccccn1)C(=O)N[C@@H](Cc1ccccc1)[C@@H](O)[C@H](O)[C@H](Cc1ccccc1)NC(=O)[C@@H](NC(=O)N(C)Cc1ccccn1)C(C)C
Log Kd [1]: -9.01

SMILES: CCOC(=O)CC(OP(=O)(O)O)C(CC(C)C)NC(=O)[C@@H](NC(=O)[C@@H](NC(=O)CC(C)C)C(C)C)C(C)C (some centres undefined)
Log Kd [2]: -7.66
